Molecular target: T1, human LPA1 (Homo sapiens, UniProt Q92633)
T1 construct: the full-length cDNA for human LPA1 was obtained by PCR of the reverse transcription reaction; expressed in transfected cells
Test: LPA1 calcium flux assay
Type: cell-based
Conditions: CHO cells expressing human LPA1, stimulated with 10 nM LPA; read-out: HLPA1 Ca Flux IC50
Protocol: A 1.1 kb cDNA encoding the human LPA1 receptor was cloned from human lung. Human lung RNA (Clontech Laboratories, Inc. USA) was reverse transcribed using the RETROscript kit (Ambion, Inc.) and the full-length cDNA for human LPA1 was obtained by PCR of the reverse transcription reaction. The nucleotide sequence of the cloned human LPA1 was determined by sequencing and confirmed to be identical to the published human LPA1 sequence (An et al. Biochenm. Biophys. Res. Commun. 231:619 (1997). The cDNA was cloned into the pCDNA5/FRT expression plasmid and transfected in CHO cells using lipofectamine 2000 (Invitrogen Corp., USA). Clones stably expressing human LPA1 were selected using hygromycin and identified as cells that show Ca-influx in response to LPA.
Human LPA1 or LPA3 expressing CHO cells are seeded at 20,000-45,000 cells per well in a 96-well poly-D-lysine coated plate one or two days before the assay. Prior to the assay, the cells are washed once with PBS and then cultured in serum-free media overnight. On the day of the assay, a calcium indicator dye (Calcium 4, Molecular Devices) in assay buffer (HBSS with Ca^2+ and Mg^2+ and containing 20 mM Hepes and 0.3% fatty-acid free human serum albumin) is added to each well and incubation continued for 1 hour at 37° C. 10 μl of test compounds in 2.5% DMSO are added to the cells and incubation continued at room temperature for 30 minutes. Cells are the stimulated by the addition of 10 nM LPA and intracellular Ca^2+ measured using the Flexstation 3 (Molecular Devices). IC50s are determined using Graphpad prism analysis of drug titration curves.

T1 sequence (Q92633 whole entry): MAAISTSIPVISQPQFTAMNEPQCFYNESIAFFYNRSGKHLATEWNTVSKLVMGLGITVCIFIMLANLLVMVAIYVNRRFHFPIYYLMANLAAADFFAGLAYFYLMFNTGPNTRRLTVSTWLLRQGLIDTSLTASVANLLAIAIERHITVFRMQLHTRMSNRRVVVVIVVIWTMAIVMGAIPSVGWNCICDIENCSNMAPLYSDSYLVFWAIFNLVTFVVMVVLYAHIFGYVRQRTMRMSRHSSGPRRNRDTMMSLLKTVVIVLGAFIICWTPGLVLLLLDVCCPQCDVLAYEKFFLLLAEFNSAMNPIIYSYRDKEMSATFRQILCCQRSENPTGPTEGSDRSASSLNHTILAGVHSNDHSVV

IC50, 1000 to 50000 nM:
Cc1noc(-c2ccc(-c3ccc(C4(C(=O)O)CC4)cc3)cc2)c1CCC(=O)N(C)C(C)c1ccccc1 (stereo in doubt) [Compound 1-117, 1-[4′-(3-Methyl-4-{2-[methyl-((R)-1-phenyl-ethyl)-carbamoyl]-ethyl}-isoxazol-5-yl)-biphenyl-4-yl]-cyclopropanecarboxylic acid]
Cc1noc(-c2ccc(-c3cccc(C(=O)O)c3)cc2)c1NC(=O)CCc1ccccc1 [Compound 1-1, 4′-[3-Methyl-4-(3-phenyl-propionylamino)-isoxazol-5-yl]-biphenyl-3-carboxylic acid]
Cc1noc(-c2ccc(-c3cccc(C(=O)O)c3)cc2)c1NC(=O)NCc1ccccc1 [Compound 1-2, 4′-[4-(3-Benzyl-ureido)-3-methyl-isoxazol-5-yl]-biphenyl-3-carboxylic acid]
Cc1noc(-c2ccc(-c3ccc(C4(C(=O)O)CC4)cc3)cc2)c1NC(=O)CC(C)C [Compound 1-3, 1-{4′-[3-Methyl-4-(3-methyl-butyrylamino)-isoxazol-5-yl]-biphenyl-4-yl}-cyclopropanecarboxylic acid]
Cc1noc(-c2ccc(-c3ccc(C4(C(=O)O)CC4)cc3)cc2)c1NC(=O)CCc1ccccc1 [Compound 1-4, 1-{4′-[3-Methyl-4-(3-phenyl-propionylamino)-isoxazol-5-yl]-biphenyl-4-yl}-cyclopropanecarboxylic acid]
Cc1noc(-c2ccc(-c3ccc(C4(C(=O)O)CC4)cc3)cc2)c1NC(=O)COc1ccccc1 [Compound 1-5, 1-{4′-[3-Methyl-4-(2-phenoxy-acetylamino)-isoxazol-5-yl]-biphenyl-4-yl}-cyclopropanecarboxylic acid]
Cc1noc(-c2ccc(-c3ccc(C4(C(=O)O)CC4)cc3)cc2)c1NC(=O)N(C)C(C)C [Compound 1-8, 1-{4′-[4-(3-Isopropyl-3-methyl-ureido)-3-methyl-isoxazol-5-yl]-biphenyl-4-yl}-cyclopropanecarboxylic acid]
Cc1noc(-c2ccc(-c3ccc(C4(C(=O)O)CC4)cc3)cc2)c1NC(=O)N(C)[C@H](C)c1ccccc1 [Compound 1-9, 1-(4′-{3-Methyl-4-[3-methyl-3-((R)-1-phenyl-ethyl)-ureido]-isoxazol-5-yl}-biphenyl-4-yl)-cyclopropanecarboxylic acid]
Cc1noc(-c2ccc(-c3ccc(C4(C(=O)O)CC4)cc3)cc2)c1NC(=O)NCc1cc(C(F)(F)F)ccc1F [Compound 1-15, 1-(4′-{4-[3-(2-Fluoro-5-trifluoromethyl-benzyl)-ureido]-3-methyl-isoxazol-5-yl}-biphenyl-4-yl)-cyclopropanecarboxylic acid]
Cc1noc(-c2ccc(-c3ccc(C4(C(=O)O)CC4)cc3)cc2)c1NC(=O)C(C)Oc1ccccc1 (centres unmarked) [Compound 1-17, 1-{4′-[3-Methyl-4-(2-phenoxy-propionylamino)-isoxazol-5-yl]-biphenyl-4-yl}-cyclopropanecarboxylic acid]
Cc1noc(-c2ccc(-c3ccc(C4(C(=O)O)CC4)cc3)cc2)c1NC(=O)NS(=O)(=O)c1ccccc1 [Compound 1-18, 1-{4′-[4-(3-Benzenesulfonyl-ureido)-3-methyl-isoxazol-5-yl]-biphenyl-4-yl}-cyclopropanecarboxylic acid]
Cc1noc(-c2ccc(-c3ccc(C4(C(=O)O)CC4)cc3)cc2)c1COC(=O)N[C@@H](C)c1ccccc1 [Compound 1-22, 1-{4′-[3-Methyl-4-((S)-1-phenyl-ethylcarbamoyloxymethyl)-isoxazol-5-yl]-biphenyl-4-yl}-cyclopropanecarboxylic acid]
Cc1noc(-c2ccc(-c3ccc(C4(C(=O)O)CC4)cc3)cc2)c1CNCC1CC1 [Compound 1-27, 1-(4′-{4-[(Cyclopropylmethyl-amino)-methyl]-3-methyl-isoxazol-5-yl}-biphenyl-4-yl)-cyclopropanecarboxylic acid]
Cc1noc(-c2ccc(-c3ccc(C4(C(=O)O)CC4)cc3)cc2)c1CNCc1ccccc1 [Compound 1-29, 1-{4′-[4-(Benzylamino-methyl)-3-methyl-isoxazol-5-yl]-biphenyl-4-yl}-cyclopropanecarboxylic acid]

IC50, < 300 nM:
Cc1noc(-c2ccc(-c3ccc(C4(C(=O)O)CC4)cc3)cc2)c1NC(C)C(O)Cc1ccccc1 (single isomer, unassigned) [Compound 1-283, 1-{4′-[4-(2-Hydroxy-1-methyl-3-phenyl-propylamino)-3-methyl-isoxazol-5-yl]-biphenyl-4-yl}-cyclopropanecarboxylic acid]
Cc1noc(-c2ccc(-c3ccc(C4(C(=O)O)CC4)cc3)cc2)c1NC(=O)NCc1ccccc1 [Compound 1-6, 1-{4′-[4-(3-Benzyl-ureido)-3-methyl-isoxazol-5-yl]-biphenyl-4-yl}-cyclopropanecarboxylic acid]
Cc1noc(-c2ccc(-c3ccc(C4(C(=O)O)CC4)cc3)cc2)c1NC(=O)NC(C)(C)C [Compound 1-7, 1-{4′-[4-(3-tert-Butyl-ureido)-3-methyl-isoxazol-5-yl]-biphenyl-4-yl}-cyclopropanecarboxylic acid]
Cc1noc(-c2ccc(-c3ccc(C4(C(=O)O)CC4)cc3)cc2)c1NC(=O)N[C@H](C)c1ccccc1 [Compound 1-11, 1-(4′-{3-Methyl-4-[3-((R)-1-phenyl-ethyl)-ureido]-isoxazol-5-yl}-biphenyl-4-yl)-cyclopropanecarboxylic acid]
Cc1noc(-c2ccc(-c3ccc(C4(C(=O)O)CC4)cc3)cc2)c1NC(=O)NCc1ccccc1F [Compound 1-12, 1-(4′-{4-[3-(2-Fluoro-benzyl)-ureido]-3-methyl-isoxazol-5-yl}-biphenyl-4-yl)-cyclopropanecarboxylic acid]
Cc1noc(-c2ccc(-c3ccc(C4(C(=O)O)CC4)cc3)cc2)c1COC(=O)N[C@H](C)c1ccccc1 [Compound 1-19, 1-{4′-[3-Methyl-4-((R)-1-phenyl-ethylcarbamoyloxymethyl)-isoxazol-5-yl]-biphenyl-4-yl}-cyclopropanecarboxylic acid]
Cc1noc(-c2ccc(-c3ccc(C4(C(=O)O)CC4)cc3)cc2)c1COC(=O)NCc1ccccc1 [Compound 1-21, 1-[4′-(4-Benzylcarbamoyloxymethyl-3-methyl-isoxazol-5-yl)-biphenyl-4-yl]-cyclopropanecarboxylic acid]
Cc1noc(-c2ccc(-c3ccc(C4(C(=O)O)CC4)cc3)cc2)c1COC(=O)NC1CCCC1 [Compound 1-23, 1-[4′-(4-Cyclopentylcarbamoyloxymethyl-3-methyl-isoxazol-5-yl)-biphenyl-4-yl]-cyclopropanecarboxylic acid]
CC(=O)N(CCc1ccccc1)Cc1c(C)noc1-c1ccc(-c2ccc(C3(C(=O)O)CC3)cc2)cc1 [Compound 1-30, 1-(4′-{4-[(Acetyl-phenethyl-amino)-methyl]-3-methyl-isoxazol-5-yl}-biphenyl-4-yl)-cyclopropanecarboxylic acid]
Cc1noc(-c2ccc(-c3ccc(C4(C(=O)O)CC4)cc3)cc2)c1C=CCCc1ccccc1 [Compound 1-31, 1-{4′-[3-Methyl-4-(4-phenyl-but-1-enyl)-isoxazol-5-yl]-biphenyl-4-yl}-cyclopropanecarboxylic acid]
Cc1noc(-c2ccc(-c3ccc(C4(C(=O)O)CC4)cc3)cc2)c1CC(=O)NC(C)c1ccccc1 (centres unmarked) [Compound 1-33, 1-(4′-{3-Methyl-4-[(1-phenyl-ethylcarbamoyl)-methyl]-isoxazol-5-yl}-biphenyl-4-yl)-cyclopropanecarboxylic acid]

IC50, 300 to 1000 nM:
Cc1noc(-c2ccc(-c3ccc(C4(C(=O)O)CC4)cc3)cc2)c1NS(=O)(=O)Cc1ccccc1Cl [Compound 1-14, 1-{4′-[4-(2-Chloro-phenylmethanesulfonylamino)-3-methyl-isoxazol-5-yl]-biphenyl-4-yl}-cyclopropanecarboxylic acid]
Cc1noc(-c2ccc(-c3ccc(C4(C(=O)O)CC4)cc3)cc2)c1NC(=O)NCc1c(F)cccc1F [Compound 1-16, 1-(4′-{4-[3-(2,6-Difluoro-benzyl)-ureido]-3-methyl-isoxazol-5-yl}-biphenyl-4-yl)-cyclopropanecarboxylic acid]

IC50, > 50000 nM:
Cc1noc(-c2ccc(-c3ccc(C4(C(=O)O)CC4)cc3)cc2)c1NC(=O)NCC(F)(F)F [Compound 1-13, 1-(4′-{3-Methyl-4-[3-(2,2,2-trifluoro-ethyl)-ureido]-isoxazol-5-yl}-biphenyl-4-yl)-cyclopropanecarboxylic acid]
Cc1noc(-c2ccc(-c3ccc(C4(C(=O)O)CC4)cc3)cc2)c1CNCC1CCCCC1 [Compound 1-28, 1-(4′-{4-[(Cyclohexylmethyl-amino)-methyl]-3-methyl-isoxazol-5-yl}-biphenyl-4-yl)-cyclopropanecarboxylic acid]
